Patent US11566007B2, “Ras inhibitors” (Revolution Medicines, Inc., priority 2019, dated 2023)
pEC50, pIC50: −log10 of the molar value. Where “and” joins values, the source holds several entries; their conditions need not be identical. Identical values can stand only once. Like-named read-outs stand apart in the source and are kept apart here.

Experiments:
[1] = tested on: NCI-H358 cells (K-Ras G12C); experiment: Potency assay: pERK in NCI-H358 cells; assay type: cell-based, human; settings: Homo sapiens
Summary of the method: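 4 h cpd, 37 °C; 10-pt 3-fold series, 10 mM DMSO top stock, duplicates. Readout pERK: AlphaLISA SureFire Ultra or In-Cell Western (IR-800CW secondary, DRAQ5 DNA stain). IC50, 4-PL fit vs log conc.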

NCI-H358 (K-Ras G12C) = experiment: CellTiter-Glo cell viability assay, NCI-H358; assay type: cell-based, human; settings: Homo sapiens, NCI-H358, 120 h, NCI-H358, 5-day treatment
Summary of the method: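 Viability of K-Ras mutant lines is measured by ATP luminescence after five days of compound treatment. Percent of DMSO control is calculated and dose-response data are fitted with a four-parameter logistic equation.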

K-Ras G12C = K-Ras G12C (Homo sapiens (Human), UniProt P01116+P62937, G12C); experiment: Ras-Raf (BRAF RBD) disruption / FRET / MOA assay, KRAS G12C; assay type: biochemical
Summary of the method: (§1)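 Ternary complex formation (Ras–compound–cyclophilin A) displacing BRAF RBD, monitored by TR-FRET. Three hours at 25° C with compound (top 30 μM final), then 1.5 h with the labelled antibodies. Lower ratio than DMSO indicates disruption; IC50 reported.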

K-Ras G13C = K-Ras G13C (Homo sapiens (Human), UniProt P01116+P62937, G13C); experiment: Ras-Raf (BRAF RBD) disruption / FRET / MOA assay, KRAS G13C; assay type: biochemical
Summary of the method: as §1

KRAS G12S = KRAS G12S (Homo sapiens (Human), UniProt P01116+P62937, G12S); experiment: Ras-Raf (BRAF RBD) disruption / FRET / MOA assay, KRAS G12S; assay type: biochemical; settings: Ras-Raf disruption/FRET/MOA assay; class symbols; read-out: KRAS G12S FRET data IC50
Summary of the method: as §1

KRAS G12D = KRAS G12D (Homo sapiens (Human), UniProt P01116+P62937, G12D); experiment: Ras-Raf (BRAF RBD) disruption / FRET / MOA assay, KRAS G12D; assay type: biochemical; settings: Ras-Raf disruption/FRET/MOA assay; class symbols; read-out: KRAS G12D FRET data IC50
Summary of the method: as §1

KRAS G12V = KRAS G12V (Homo sapiens (Human), UniProt P01116+P62937, G12V); experiment: Ras-Raf (BRAF RBD) disruption / FRET / MOA assay, KRAS G12V; assay type: biochemical; settings: read-out: IC50* KRAS G12V FRET data
Summary of the method: as §1

KRAS WT = KRAS WT (Homo sapiens (Human), UniProt P01116+P62937); experiment: Ras-Raf (BRAF RBD) disruption / FRET / MOA assay, KRAS WT; assay type: biochemical; settings: read-out: IC50* KRAS WT FRET data
Summary of the method: as §1

KRAS G13D = KRAS G13D (Homo sapiens (Human), UniProt P01116+P62937, G13D); experiment: Ras-Raf (BRAF RBD) disruption / FRET / MOA assay, KRAS G13D; assay type: biochemical; settings: read-out: IC50* KRAS G13D FRET data
Summary of the method: as §1

NRAS G12C = NRAS G12C (Homo sapiens (Human), UniProt P01111+P62937, G12C); experiment: Ras-Raf (BRAF RBD) disruption / FRET / MOA assay, NRAS G12C; assay type: biochemical; settings: read-out: IC50* NRAS G12C FRET data
Summary of the method: as §1

[2] = NCI-H358, H358 KRAS G12C, read-out: pERK EC50
[3] = class symbols, read-out: Additional H358 Cell Viability assay data (K-Ras G12C, IC50)
[4] = KRAS G12C, Ras-Raf disruption/FRET/MOA assay, read-out: IC50* KRAS G12C FRET data
[5] = KRAS G13C, Ras-Raf disruption/FRET/MOA assay, read-out: IC50* KRAS G13C FRET data

Chain of KRAS G12V (P01116-2 other isoform, or with tags, fused parts or gaps G12V): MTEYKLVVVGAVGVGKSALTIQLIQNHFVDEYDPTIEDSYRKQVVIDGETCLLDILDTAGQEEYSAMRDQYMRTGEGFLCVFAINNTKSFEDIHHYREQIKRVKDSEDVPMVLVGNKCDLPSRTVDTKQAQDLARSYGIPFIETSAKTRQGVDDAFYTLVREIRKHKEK
Chain of KRAS G12V (P62937 whole entry): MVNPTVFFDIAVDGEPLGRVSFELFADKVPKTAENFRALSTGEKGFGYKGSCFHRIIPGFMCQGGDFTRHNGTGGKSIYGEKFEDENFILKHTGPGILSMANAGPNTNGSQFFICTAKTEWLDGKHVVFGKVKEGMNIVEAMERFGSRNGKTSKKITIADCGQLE
Chain of NRAS G12C (P01111 whole entry G12C): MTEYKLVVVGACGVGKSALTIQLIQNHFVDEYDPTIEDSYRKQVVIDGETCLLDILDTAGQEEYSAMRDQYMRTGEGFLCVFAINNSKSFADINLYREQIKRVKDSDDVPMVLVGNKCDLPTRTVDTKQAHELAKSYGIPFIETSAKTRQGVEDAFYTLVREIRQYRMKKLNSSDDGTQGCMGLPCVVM
Chain of NRAS G12C (P62937 whole entry): as the sequence (P62937 whole entry) above
Chain of KRAS G12S (P01116-2 other isoform, or with tags, fused parts or gaps G12S): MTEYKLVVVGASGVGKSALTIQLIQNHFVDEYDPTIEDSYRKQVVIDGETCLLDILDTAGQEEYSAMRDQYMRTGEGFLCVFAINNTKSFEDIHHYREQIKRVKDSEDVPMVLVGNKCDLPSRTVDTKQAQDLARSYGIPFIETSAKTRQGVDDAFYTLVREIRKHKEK
Chain of KRAS G12S (P62937 whole entry): as the sequence (P62937 whole entry) above
Chain of K-Ras G13C (P01116-2 other isoform, or with tags, fused parts or gaps G13C): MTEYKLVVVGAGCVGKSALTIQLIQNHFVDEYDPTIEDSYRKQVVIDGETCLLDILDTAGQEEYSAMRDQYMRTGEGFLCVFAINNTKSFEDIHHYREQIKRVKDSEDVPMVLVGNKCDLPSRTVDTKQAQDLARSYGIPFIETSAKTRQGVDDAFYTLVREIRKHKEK
Chain of K-Ras G13C (P62937 whole entry): as the sequence (P62937 whole entry) above
Chain of K-Ras G12C (P01116-2 other isoform, or with tags, fused parts or gaps G12C): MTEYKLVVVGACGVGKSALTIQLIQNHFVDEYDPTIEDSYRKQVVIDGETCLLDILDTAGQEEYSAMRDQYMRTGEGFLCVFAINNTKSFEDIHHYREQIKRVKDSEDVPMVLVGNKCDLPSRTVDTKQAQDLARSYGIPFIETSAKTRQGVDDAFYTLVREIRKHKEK
Chain of K-Ras G12C (P62937 whole entry): as the sequence (P62937 whole entry) above
Chain of KRAS WT (P01116-2 other isoform, or with tags, fused parts or gaps): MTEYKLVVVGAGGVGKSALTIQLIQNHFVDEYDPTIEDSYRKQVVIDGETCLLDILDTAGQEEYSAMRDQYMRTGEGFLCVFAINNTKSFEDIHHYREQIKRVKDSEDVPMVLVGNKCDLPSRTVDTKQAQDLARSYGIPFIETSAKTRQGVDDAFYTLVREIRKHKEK
Chain of KRAS WT (P62937 whole entry): as the sequence (P62937 whole entry) above
Chain of KRAS G12D (P01116-2 other isoform, or with tags, fused parts or gaps G12D): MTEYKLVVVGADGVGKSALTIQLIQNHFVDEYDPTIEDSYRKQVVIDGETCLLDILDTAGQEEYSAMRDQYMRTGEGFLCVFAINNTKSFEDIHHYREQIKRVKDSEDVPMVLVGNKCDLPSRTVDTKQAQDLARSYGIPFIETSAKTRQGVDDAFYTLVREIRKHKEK
Chain of KRAS G12D (P62937 whole entry): as the sequence (P62937 whole entry) above
Chain of KRAS G13D (P01116-2 other isoform, or with tags, fused parts or gaps G13D): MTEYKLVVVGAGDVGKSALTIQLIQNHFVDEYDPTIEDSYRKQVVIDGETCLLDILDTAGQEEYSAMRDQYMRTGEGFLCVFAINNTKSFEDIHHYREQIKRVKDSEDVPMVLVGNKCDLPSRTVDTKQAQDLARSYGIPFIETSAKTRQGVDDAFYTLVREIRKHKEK
Chain of KRAS G13D (P62937 whole entry): as the sequence (P62937 whole entry) above

Structure (SMILES) | pEC50 [1, 2] | pIC50 (NCI-H358 (K-Ras G12C); [3]) | pIC50 (K-Ras G12C; [4]) | pIC50 (K-Ras G13C; [5]) | pIC50 (KRAS G12S) | pIC50 (KRAS G12D) | pIC50 (KRAS G12V) | pIC50 (KRAS WT) | pIC50 (KRAS G13D) | pIC50 (NRAS G12C) | pEC50 ([1]; NCI-H358 cells, 4 hours, read-out: H358 pERK (K-Ras G12C) EC50) | pIC50 (NCI-H358 (K-Ras G12C); read-out: H358 Cell Viability (K-Ras G12C) IC50) | pIC50 (K-Ras G12C; with Cyclophilin A, BRAF RBD, read-out: FRET (K-Ras G12C) IC50) | pIC50 (K-Ras G13C; with Cyclophilin A, BRAF RBD, read-out: FRET (K-Ras G13C) IC50)
CCn1c(-c2cccnc2)c2c3cc(ccc31)-c1csc(n1)C[C@H](NC(=O)[C@H](C(C)C)N(C)C(=O)[C@H]1CCN(C(=O)C#CCN3CCOCC3)C1)C(=O)N1CCC[C@H](N1)C(=O)OCC(C)(C)C2 [Example A190] | > 5.30 | 6.00 to 7.00 | 6.00 to 7.00 | < 5.00 | < 5.00 | < 5.00 | < 5.00 | < 5.00 | < 5.00 | 6.00 to 7.00 | – | – | – | –
CCn1c(-c2cccnc2)c2c3cc(ccc31)-c1cccc(c1)C[C@H](NC(=O)[C@H](C(C)C)N(C)C(=O)[C@H]1CCN(C(=O)C#CCN3CCOCC3)C1)C(=O)N1CCC[C@H](N1)C(=O)OCC(C)(C)C2 [Example A195] | > 5.30 | 6.00 to 7.00 | 6.00 to 7.00 | < 5.00 | < 5.00 | < 5.00 | < 5.00 | < 5.00 | < 5.00 | 6.00 to 7.00 | – | – | – | –
CCn1c(-c2cccnc2COC)c2c3cc(ccc31)-c1cc(O)cc(c1)C[C@H](NC(=O)[C@@H](C(C)C)N(C)C(=O)[C@H]1CCN(C(=O)C#CCN3CCOCC3)C1)C(=O)N1CCC[C@H](N1)C(=O)OCC(C)(C)C2 [Example A200] | > 5.30 | 6.00 to 7.00 | 7.00 to 8.00 | 5.00 to 6.00 | < 5.00 | < 5.00 | < 5.00 | < 5.00 | < 5.00 | 7.00 to 8.00 | – | – | – | –
CCn1c(-c2cncnc2)c2c3cc(ccc31)-c1cccc(c1)[C@@H](OC)[C@H](NC(=O)[C@H](C(C)C)N(C)C(=O)[C@H]1CCN(C(=O)C#CCN3CCOCC3)C1)C(=O)N1CCC[C@H](N1)C(=O)OCC(C)(C)C2 [Example A208] | > 5.30 | < 6.00 | 6.00 to 7.00 | < 5.00 | < 5.00 | < 5.00 | < 5.00 | < 5.00 | < 5.00 | 5.00 to 6.00 | 7.89 | 8.40 | 7.64 | 5.13
CCn1c(-c2ccccc2CN(C)C)c2c3cc(ccc31)-c1cc(O)cc(c1)C[C@H](NC(=O)[C@H](C(C)C)N(C)Cc1ccc(NC(=O)/C=C/CN(C)C)cn1)C(=O)N1CCC[C@H](N1)C(=O)OCC(C)(C)C2 [Example A213] | > 5.30 | < 6.00 | 6.00 to 7.00 and < 5.00 | 6.00 to 7.00 and 5.00 to 6.00 | 5.00 to 6.00 and < 5.00 | 5.00 to 6.00 and < 5.00 | 5.00 to 6.00 and < 5.00 | 5.00 to 6.00 and < 5.00 | 5.00 to 6.00 and < 5.00 | 5.00 to 6.00 and < 5.00 | – | – | – | –
C=CC(=O)N1CC[C@H](C(=O)N(C)c2ccccc2C(=O)N[C@H]2Cc3cc(O)cc(c3)-c3ccc4c(c3)c(c(-c3cnccc3COC)n4CC)CC(C)(C)COC(=O)[C@@H]3CCCN(N3)C2=O)C1 [Example A228] | > 5.30 | < 6.00 | 5.00 to 6.00 | < 5.00 | < 5.00 | < 5.00 | < 5.00 | < 5.00 | < 5.00 | 5.00 to 6.00 | – | – | – | –
C=CC(=O)N1CC(OC[C@H](C(=O)N[C@H]2Cc3cc(O)cc(c3)-c3ccc4c(c3)c(c(-c3cccnc3COC)n4CC)CC(C)(C)COC(=O)[C@@H]3CCCN(N3)C2=O)C(C)C)C1 [Example A232] | > 5.30 | 7.00 to 8.00 | 6.00 to 7.00 | 6.00 to 7.00 | < 5.00 | < 5.00 | 5.00 to 6.00 | 5.00 to 6.00 | 5.00 to 6.00 | 6.00 to 7.00 | – | – | – | –
CCn1c(-c2cccnc2COC)c2c3cc(ccc31)-c1cc(O)cc(c1)C[C@H](NC(=O)[C@H](C(C)C)N(C)C(=O)[C@H]1CCN(C(=O)C#CCN3[C@H](C)COC[C@@H]3C)C1)C(=O)N1CCC[C@H](N1)C(=O)OCC(C)(C)C2 [Example A237] | > 5.30 | > 8.00 | 7.00 to 8.00 | 6.00 to 7.00 | 6.00 to 7.00 | 5.00 to 6.00 | 6.00 to 7.00 | 5.00 to 6.00 | 5.00 to 6.00 | 7.00 to 8.00 | – | – | – | –
CCn1c(-c2cccnc2COC)c2c3cc(ccc31)-c1cc(O)cc(c1)C[C@H](NC(=O)[C@H](C(C)C)N(C)C(=O)[C@H]1CCN(C(=O)C#CC3(N(C)C)CC3)C1)C(=O)N1CCC[C@H](N1)C(=O)OCC(C)(C)C2 [Example A238] | > 5.30 | 7.00 to 8.00 | 7.00 to 8.00 | 6.00 to 7.00 | 5.00 to 6.00 | < 5.00 | 6.00 to 7.00 | 5.00 to 6.00 | 5.00 to 6.00 | 6.00 to 7.00 | – | – | – | –
CCn1c(-c2cccnc2[C@H](C)OC)c2c3cc(ccc31)-c1cc(O)cc(c1)C[C@H](NC(=O)[C@H](C(C)C)N(C)C(=O)[C@H]1CCN(C(=O)C#CCOC)C1)C(=O)N1CCC[C@H](N1)C(=O)OCC(C)(C)C2 [Example A266] | > 5.30 | > 8.00 | > 8.00 | 7.00 to 8.00 | 7.00 to 8.00 | 6.00 to 7.00 | 7.00 to 8.00 | 6.00 to 7.00 | 6.00 to 7.00 | > 8.00 | – | – | – | –
C=CC(=O)N1CC[C@H](C(=O)N(C)[C@H](C(=O)N[C@@H]2C(=O)N3CCC[C@H](N3)C(=O)OCC(C)(C)Cc3c(-c4cncnc4)n(CC)c4ccc(cc34)-c3cccc(c3)[C@H]2O)C(C)C)C1 [Example A272] | > 5.30 | < 6.00 | 5.00 to 6.00 | < 5.00 | < 5.00 | < 5.00 | < 5.00 | < 5.00 | < 5.00 | < 5.00 | – | – | – | –
C=CC(=O)N1CC[C@H](C(=O)N(C)[C@H](C(=O)N[C@H]2Cc3cc(O)cc(c3)-c3ccc4c(c3)c(c(-c3cnccc3[C@@H](OC)C3CC3)n4CC)CC(C)(C)COC(=O)[C@@H]3CCCN(N3)C2=O)C(C)C)C1 [Example A274] | > 5.30 | 6.00 to 7.00 | 5.00 to 6.00 | < 5.00 | < 5.00 | < 5.00 | < 5.00 | < 5.00 | < 5.00 | 5.00 to 6.00 | – | – | – | –
